From paper PMC4279382, “Antitumor activity of S116836, a novel tyrosine kinase inhibitor, against imatinib-resistant FIP1L1-PDGFRα-expressing cells” (Oncotarget, 2014)

What was measured:
Assay in all cases: KINOMEscan competition binding, single concentration
Settings in all cases: read-out: % Ctrl @ 100nM
ABL1-nonphosphorylated [1] = target: T1, ABL1-nonphosphorylated (Homo sapiens, UniProt P00519)
T1 construct: KINOMEscan (Ambit) panel kinase, nonphosphorylated form
Excerpt: (§1) KINOMEscan competition binding, single concentration on ABL1-nonphosphorylated

ABL1-nonphosphorylated [2] = target: T2, ABL1-nonphosphorylated (Homo sapiens, UniProt P00519, T315I)
T2 construct: KINOMEscan (Ambit) panel kinase, nonphosphorylated form
Excerpt: as §1

BLK = target: T3, BLK (Homo sapiens, UniProt P51451)
T3 construct: KINOMEscan (Ambit) panel kinase
T3 sequence (P51451 2-505): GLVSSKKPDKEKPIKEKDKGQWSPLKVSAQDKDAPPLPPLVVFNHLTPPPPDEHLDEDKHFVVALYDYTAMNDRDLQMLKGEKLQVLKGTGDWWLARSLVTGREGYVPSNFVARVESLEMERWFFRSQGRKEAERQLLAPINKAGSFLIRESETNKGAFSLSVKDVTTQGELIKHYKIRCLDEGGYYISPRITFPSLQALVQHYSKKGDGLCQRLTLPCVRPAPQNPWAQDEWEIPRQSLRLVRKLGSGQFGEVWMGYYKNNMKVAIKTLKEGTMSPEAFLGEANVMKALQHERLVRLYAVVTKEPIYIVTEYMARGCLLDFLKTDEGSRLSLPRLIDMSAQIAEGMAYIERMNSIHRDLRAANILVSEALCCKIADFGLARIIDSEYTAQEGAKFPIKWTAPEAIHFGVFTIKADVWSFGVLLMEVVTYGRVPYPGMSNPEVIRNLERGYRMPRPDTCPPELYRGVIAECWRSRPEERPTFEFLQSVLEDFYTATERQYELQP
Excerpt: KINOMEscan competition binding, single concentration on BLK

LYN = target: T4, LYN (Homo sapiens, UniProt P07948)
T4 construct: KINOMEscan (Ambit) panel kinase
T4 sequence (P07948 2-512): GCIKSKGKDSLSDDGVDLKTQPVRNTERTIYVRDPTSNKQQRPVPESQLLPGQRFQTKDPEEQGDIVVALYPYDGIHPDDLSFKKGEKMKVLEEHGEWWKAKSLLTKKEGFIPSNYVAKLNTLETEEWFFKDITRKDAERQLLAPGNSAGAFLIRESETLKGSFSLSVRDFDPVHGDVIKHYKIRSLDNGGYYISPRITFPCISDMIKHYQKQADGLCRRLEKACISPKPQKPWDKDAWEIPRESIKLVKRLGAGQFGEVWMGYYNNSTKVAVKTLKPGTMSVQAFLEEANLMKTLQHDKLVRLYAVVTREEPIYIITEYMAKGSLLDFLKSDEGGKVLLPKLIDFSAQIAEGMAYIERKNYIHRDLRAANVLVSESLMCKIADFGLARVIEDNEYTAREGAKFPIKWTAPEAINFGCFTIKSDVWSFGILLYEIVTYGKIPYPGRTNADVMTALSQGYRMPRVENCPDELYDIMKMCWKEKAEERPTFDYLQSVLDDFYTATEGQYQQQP
Excerpt: KINOMEscan competition binding, single concentration on LYN

FLT3 = target: T5, FLT3 (Homo sapiens, UniProt P36888)
T5 construct: KINOMEscan (Ambit) panel kinase
T5 sequence (P36888 27-993): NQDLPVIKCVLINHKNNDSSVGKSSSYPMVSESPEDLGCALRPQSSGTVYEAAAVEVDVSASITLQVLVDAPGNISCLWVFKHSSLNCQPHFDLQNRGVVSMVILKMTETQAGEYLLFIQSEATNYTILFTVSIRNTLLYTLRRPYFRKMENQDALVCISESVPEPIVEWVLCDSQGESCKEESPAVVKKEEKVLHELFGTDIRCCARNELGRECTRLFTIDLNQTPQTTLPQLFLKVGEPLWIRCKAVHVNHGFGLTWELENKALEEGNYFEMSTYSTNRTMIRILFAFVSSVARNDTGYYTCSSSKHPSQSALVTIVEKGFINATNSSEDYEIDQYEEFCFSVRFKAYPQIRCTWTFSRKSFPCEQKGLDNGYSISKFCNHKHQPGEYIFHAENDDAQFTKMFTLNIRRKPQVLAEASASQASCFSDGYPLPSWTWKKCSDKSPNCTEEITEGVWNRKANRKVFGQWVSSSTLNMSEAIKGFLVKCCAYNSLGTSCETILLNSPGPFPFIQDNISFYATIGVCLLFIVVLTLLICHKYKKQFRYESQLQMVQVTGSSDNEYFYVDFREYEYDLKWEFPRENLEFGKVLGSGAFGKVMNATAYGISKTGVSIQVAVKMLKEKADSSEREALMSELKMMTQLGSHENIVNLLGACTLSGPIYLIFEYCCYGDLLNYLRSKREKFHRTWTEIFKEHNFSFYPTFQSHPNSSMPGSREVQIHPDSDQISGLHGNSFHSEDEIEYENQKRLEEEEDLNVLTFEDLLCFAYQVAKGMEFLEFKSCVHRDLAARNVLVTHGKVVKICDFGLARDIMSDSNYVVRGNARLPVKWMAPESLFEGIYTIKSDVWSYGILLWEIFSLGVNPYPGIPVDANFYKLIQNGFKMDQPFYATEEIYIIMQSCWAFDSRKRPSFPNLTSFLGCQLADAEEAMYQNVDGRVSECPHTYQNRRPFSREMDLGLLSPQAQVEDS
Excerpt: KINOMEscan competition binding, single concentration on FLT3

KIT = target: T6, KIT (Homo sapiens, UniProt P10721)
T6 construct: KINOMEscan (Ambit) panel kinase
Excerpt: KINOMEscan competition binding, single concentration on KIT

PLK1 = target: T7, PLK1 (Homo sapiens, UniProt P53350)
T7 construct: KINOMEscan (Ambit) panel kinase
T7 sequence (P53350 2-603): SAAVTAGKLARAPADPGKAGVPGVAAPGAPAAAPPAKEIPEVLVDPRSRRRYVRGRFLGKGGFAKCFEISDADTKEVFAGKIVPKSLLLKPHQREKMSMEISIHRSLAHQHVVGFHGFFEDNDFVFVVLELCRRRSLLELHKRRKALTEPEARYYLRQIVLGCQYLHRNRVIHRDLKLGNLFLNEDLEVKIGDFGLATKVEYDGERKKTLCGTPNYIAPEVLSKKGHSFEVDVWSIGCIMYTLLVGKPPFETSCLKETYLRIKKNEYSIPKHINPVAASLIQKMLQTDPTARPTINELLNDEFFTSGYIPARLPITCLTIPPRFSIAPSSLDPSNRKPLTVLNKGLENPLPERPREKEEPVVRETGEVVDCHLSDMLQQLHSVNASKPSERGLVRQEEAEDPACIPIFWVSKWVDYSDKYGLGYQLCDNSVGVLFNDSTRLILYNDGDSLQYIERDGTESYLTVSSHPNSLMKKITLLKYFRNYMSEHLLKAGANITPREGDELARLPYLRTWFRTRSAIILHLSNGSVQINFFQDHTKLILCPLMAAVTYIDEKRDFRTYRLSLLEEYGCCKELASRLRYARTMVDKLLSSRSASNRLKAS
Excerpt: KINOMEscan competition binding, single concentration on PLK1

PDGFRβ = target: T8, PDGFRβ (Homo sapiens, UniProt P09619)
T8 construct: gene PDGFRB; KINOMEscan (Ambit) panel kinase
T8 sequence (P09619 33-1106): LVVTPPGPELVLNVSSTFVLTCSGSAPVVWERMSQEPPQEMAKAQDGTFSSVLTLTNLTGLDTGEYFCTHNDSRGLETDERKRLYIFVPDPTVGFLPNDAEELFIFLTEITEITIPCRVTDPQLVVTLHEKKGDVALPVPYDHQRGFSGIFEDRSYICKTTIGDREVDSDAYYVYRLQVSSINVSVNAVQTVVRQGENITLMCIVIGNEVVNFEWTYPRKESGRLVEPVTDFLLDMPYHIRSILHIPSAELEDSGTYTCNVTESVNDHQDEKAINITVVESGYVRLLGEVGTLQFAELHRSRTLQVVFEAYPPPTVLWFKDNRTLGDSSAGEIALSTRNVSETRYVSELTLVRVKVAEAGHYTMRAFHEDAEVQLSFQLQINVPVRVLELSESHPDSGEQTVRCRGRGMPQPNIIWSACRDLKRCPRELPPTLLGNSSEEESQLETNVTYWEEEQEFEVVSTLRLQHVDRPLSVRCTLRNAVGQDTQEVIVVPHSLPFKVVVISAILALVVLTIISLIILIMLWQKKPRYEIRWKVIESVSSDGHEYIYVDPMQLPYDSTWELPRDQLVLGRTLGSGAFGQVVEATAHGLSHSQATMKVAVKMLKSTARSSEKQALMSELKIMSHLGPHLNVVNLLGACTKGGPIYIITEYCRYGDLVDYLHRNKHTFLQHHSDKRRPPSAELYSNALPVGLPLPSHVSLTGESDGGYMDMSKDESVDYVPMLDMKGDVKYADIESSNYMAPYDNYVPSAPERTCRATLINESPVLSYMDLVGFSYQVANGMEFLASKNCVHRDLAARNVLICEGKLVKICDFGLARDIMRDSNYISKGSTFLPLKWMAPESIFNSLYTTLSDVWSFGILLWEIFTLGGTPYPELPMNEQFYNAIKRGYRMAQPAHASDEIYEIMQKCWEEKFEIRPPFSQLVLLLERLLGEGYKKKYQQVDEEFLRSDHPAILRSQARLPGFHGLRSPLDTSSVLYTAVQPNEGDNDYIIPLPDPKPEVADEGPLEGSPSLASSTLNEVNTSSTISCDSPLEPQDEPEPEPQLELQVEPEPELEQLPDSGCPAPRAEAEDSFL
Excerpt: KINOMEscan competition binding, single concentration on PDGFRβ

SRC = target: T9, SRC (Homo sapiens, UniProt P12931)
T9 construct: KINOMEscan (Ambit) panel kinase
Excerpt: KINOMEscan competition binding, single concentration on SRC

CDK2 = target: T10, CDK2 (Homo sapiens, UniProt P24941)
T10 construct: KINOMEscan (Ambit) panel kinase; no cyclin named
Excerpt: KINOMEscan competition binding, single concentration on CDK2

HCK = target: T11, HCK (Homo sapiens, UniProt P08631)
T11 construct: KINOMEscan (Ambit) panel kinase
T11 sequence (P08631 2-526): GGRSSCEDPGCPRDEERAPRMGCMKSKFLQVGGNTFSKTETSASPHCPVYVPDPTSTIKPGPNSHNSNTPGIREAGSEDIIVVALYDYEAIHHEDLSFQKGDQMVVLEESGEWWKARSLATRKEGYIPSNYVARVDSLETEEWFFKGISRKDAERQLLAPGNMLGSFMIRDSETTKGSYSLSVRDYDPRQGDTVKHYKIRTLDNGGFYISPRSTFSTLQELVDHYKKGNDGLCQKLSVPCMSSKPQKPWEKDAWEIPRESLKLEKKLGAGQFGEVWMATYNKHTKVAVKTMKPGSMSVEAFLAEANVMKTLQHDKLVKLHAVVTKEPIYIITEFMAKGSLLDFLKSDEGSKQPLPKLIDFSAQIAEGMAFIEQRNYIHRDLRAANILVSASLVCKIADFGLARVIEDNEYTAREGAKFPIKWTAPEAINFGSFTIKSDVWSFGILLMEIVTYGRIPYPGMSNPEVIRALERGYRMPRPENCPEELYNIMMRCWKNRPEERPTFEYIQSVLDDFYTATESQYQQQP
Excerpt: KINOMEscan competition binding, single concentration on HCK

PDGFRα = target: T12, PDGFRα (Homo sapiens, UniProt P16234)
T12 construct: gene PDGFRA; KINOMEscan (Ambit) panel kinase
T12 sequence (P16234 24-1089): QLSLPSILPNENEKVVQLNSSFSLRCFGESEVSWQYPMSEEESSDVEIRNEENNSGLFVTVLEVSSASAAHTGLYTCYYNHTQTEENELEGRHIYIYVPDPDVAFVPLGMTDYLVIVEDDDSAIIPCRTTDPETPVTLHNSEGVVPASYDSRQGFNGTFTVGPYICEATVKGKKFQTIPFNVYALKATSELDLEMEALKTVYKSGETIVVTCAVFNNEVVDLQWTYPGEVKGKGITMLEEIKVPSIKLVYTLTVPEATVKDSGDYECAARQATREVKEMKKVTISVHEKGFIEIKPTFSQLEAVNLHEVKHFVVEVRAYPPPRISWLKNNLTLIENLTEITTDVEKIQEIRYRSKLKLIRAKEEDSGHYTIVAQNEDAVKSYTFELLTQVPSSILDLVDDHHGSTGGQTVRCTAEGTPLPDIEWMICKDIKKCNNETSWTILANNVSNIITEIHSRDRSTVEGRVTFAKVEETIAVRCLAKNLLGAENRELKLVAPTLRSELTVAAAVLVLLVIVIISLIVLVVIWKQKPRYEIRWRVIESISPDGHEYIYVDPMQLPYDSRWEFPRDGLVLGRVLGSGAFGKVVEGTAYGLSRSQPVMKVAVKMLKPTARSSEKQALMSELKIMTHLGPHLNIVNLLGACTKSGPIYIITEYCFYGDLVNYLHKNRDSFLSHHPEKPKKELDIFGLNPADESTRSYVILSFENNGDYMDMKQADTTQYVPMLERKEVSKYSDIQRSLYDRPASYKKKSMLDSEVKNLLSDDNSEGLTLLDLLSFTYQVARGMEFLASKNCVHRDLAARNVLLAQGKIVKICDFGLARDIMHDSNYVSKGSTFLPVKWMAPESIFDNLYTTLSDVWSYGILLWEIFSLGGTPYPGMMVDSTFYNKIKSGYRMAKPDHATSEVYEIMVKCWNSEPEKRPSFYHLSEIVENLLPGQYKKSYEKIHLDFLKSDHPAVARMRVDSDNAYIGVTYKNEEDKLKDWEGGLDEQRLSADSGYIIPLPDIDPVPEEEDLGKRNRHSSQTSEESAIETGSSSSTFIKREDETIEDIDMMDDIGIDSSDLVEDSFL
Excerpt: KINOMEscan competition binding, single concentration on PDGFRα

TIE2 = target: T13, TIE2 (Homo sapiens, UniProt Q02763)
T13 construct: gene TEK; KINOMEscan (Ambit) panel kinase
Excerpt: KINOMEscan competition binding, single concentration on TIE2

LCK = target: T14, LCK (Homo sapiens, UniProt P06239)
T14 construct: KINOMEscan (Ambit) panel kinase
T14 sequence (P06239 2-509): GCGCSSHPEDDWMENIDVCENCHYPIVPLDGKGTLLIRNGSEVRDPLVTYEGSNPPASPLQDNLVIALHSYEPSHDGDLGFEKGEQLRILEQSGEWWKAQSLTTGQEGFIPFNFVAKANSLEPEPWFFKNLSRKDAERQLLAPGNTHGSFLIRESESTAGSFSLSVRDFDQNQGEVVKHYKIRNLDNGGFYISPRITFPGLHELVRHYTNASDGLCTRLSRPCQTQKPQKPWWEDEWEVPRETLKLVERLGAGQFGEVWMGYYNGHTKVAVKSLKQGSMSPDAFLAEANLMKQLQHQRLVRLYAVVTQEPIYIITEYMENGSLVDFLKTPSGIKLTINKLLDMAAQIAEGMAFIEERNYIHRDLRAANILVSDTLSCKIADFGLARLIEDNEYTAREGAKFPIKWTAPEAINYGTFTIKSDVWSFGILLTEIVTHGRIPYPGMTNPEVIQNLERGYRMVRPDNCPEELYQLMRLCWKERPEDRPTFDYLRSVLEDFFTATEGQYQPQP
Excerpt: KINOMEscan competition binding, single concentration on LCK

remaining binding at 0.1 µM (ABL1-nonphosphorylated [1]): 18%
remaining binding at 0.1 µM (ABL1-nonphosphorylated [2]): 20%
remaining binding at 0.1 µM (BLK): 10%
remaining binding at 0.1 µM (LYN): 16%
remaining binding at 0.1 µM (FLT3): 1.8%
remaining binding at 0.1 µM (KIT): 6.8%
remaining binding at 0.1 µM (PLK1): 100%
remaining binding at 0.1 µM (PDGFRβ): 3.3%
remaining binding at 0.1 µM (SRC): 33%
remaining binding at 0.1 µM (CDK2): 99%
remaining binding at 0.1 µM (HCK): 6.2%
remaining binding at 0.1 µM (PDGFRα): 26%
remaining binding at 0.1 µM (TIE2): 0.85%
remaining binding at 0.1 µM (LCK): 3.4%
SMILES: Cc1ccc(C(=O)Nc2cc(-n3ccnc3)cc(C(F)(F)F)c2)cc1C#Cc1cnc(NC2CC2)nc1 [S116836]
